Experimental data published in US7033615B2, “Methods for regulating levels of zinc, cadmium and calcium in humans and for diagnosing, or screening for the risk of developing, diseases associated with abnormal levels of cadmium, zinc and calcium in body fluids and tissues” (CancEr2 Inc., priority 1999, dated 2006).

Assays:
[1] = Counter-exchange of serum cadmium to erythrocytes (erythrocyte Cd/(erythrocyte Cd+serum Cd)) in men given cadmium sulfate; type: in vivo; conditions: CdSO4 1 mg daily
Procedure: (§1) Three healthy men with low PSA levels (below 2 ng/ml) volunteered for weekly blood and urine collection while a serial treatment of zinc, zinc with cadmium, and cadmium was administered. Treatment was given daily over a nine week period, followed by three weeks of continued sampling with no treatment. The zinc was administered in the form of zinc sulfate (Zn SO4) at a daily dosage of 75 mg. The cadmium was administered in the form of cadmium sulfate (CdSO4) at a daily dosage of 1 mg. Blood and urine were collected one day prior to the beginning of treatment for purposes of establishing a baseline level of chemicals in the blood and urine. Zinc salt administration began on the second day of the study and was administered each morning. On day 15, the cadmium salt administration was begun in the evening, with continued zinc salt administration continuing in the morning. Zinc administration was discontinued on day 43; cadmium administration continued through day 57. On days 58–78 of the study, neither zinc nor cadmium was administered, but blood and urine samples continued to be collected. Blood and urine were collected one day each week (days 1, 8, 15, etc.) for a total of 12 collection days over an 11 week period. […]
(§2) The second syringe contained no EDTA and was used to collect blood serum. […] All processed blood samples were stored in a −80° C. freezer until analyzed. […]

[2] = system: rat tissue vs human tissue; conditions: rat tissue more sensitive than human tissue; cited from earlier work
[3] = system: erythrocytes; experiment: Blockage of calcium penetration into erythrocytes (serum calcium/erythrocyte calcium) in men given cadmium sulfate; type: in vivo; conditions: three men, CdSO4 1 mg daily
Procedure: as §1, §2

Q: With `O=S(=O)([O-])[O-].[Cd+2]` [cadmium, cadmium sulfate] as the compound, how does the “increase of counter-exchange of serum cadmium to erythrocytes in each man” value ([1]; three healthy low-PSA men, minimum increase per man) read?
A: The value was ≥ 116%.

Q: And the “average cadmium counter-exchange after cadmium treatment (mean+/-S.D.)” value ([1]; three men, increased from 0.311 +/-0.166)?
A: Its value is 0.466+/−0.077.

Q: And the “sensitivity of rat tissue to cadmium relative to human tissue” value [2]?
A: The value was 30 times.

Q: What about the “increase of blockage to calcium penetration in each man” value [3] of the same compound?
A: Its value is 178–330%.

Q: And the “average blockage of calcium penetration after cadmium treatment (mean+/-S.D.)” value ([3]; increased from 114.79+/-21.135, p=0.0492)?
A: The value was 314.001+/−150.942.
